In series [1] the test system is ovariectomized rats. Briefly: serum test (ALP, BUN, CRE, GOT, GPT) of ovariectomized rats fed with the test agents. To be noted: Comparison 2 (OVXC): ovariectomized rats, calcium citrate 0.5 g/kg, no liquid. The procedure: (§1) Owing to hormone variation, menopausal females lose their bones fast and suffer from osteoporosis easily. The rats used in the experiment groups, control group, and comparison groups are female Sprague-Dawley rats. The rats are fed with different proportions of the high-magnesium potable water beforehand. Then, the serum and tissue slices of the rats are analyzed.
(§2) The dosages of the high-magnesium concentrated liquid fed to the rats in experiment groups, control group and comparison groups are shown in Table.1. The unit of the dosage is milliliter or gram per kilogram of body weight. The control group is the group of unovariectomized rats. The supply of calcium citrate is to learn the influence of calcium on osteoporosis.

Series [2] deals with ovariectomized rats. Briefly: serum test (calcium, magnesium, potassium, sodium, phosphor) of ovariectomized rats fed with the test agents. Conditions: Comparison 2 (OVXC): ovariectomized rats, calcium citrate 0.5 g/kg, no liquid. The procedure:
as §1, §2

Series [3] concerns ovariectomized rats. In words: Micro-CT bone density and trabecula images of ovariectomized rats. The format is in vivo, female Sprague-Dawley rats. Conditions: Comparison Group II, calcium citrate 0.5 g/kg, no liquid. As for the experimental part: as §1, §2
FIGS. 2A-2F are respectively the images of the bone densities of the rats of Experiment Group I, Experiment Group II, Experiment Group III, Control Group, Comparison Group I, and Comparison Group II. FIGS. 3A-3F are respectively the trabecula images of the rats of Experiment Group I, Experiment Group II, Experiment Group III, Control Group, Comparison Group I, and Comparison Group II.

Each structure is given as a SMILES string.

Here are results for 1 compound from patent publication US10647591B2, “High-magnesium concentrated liquid” (QUALITY PURE CO., LTD., priority 2016, dated 2020).

`O=C([O-])CC(O)(CC(=O)[O-])C(=O)[O-].O=C([O-])CC(O)(CC(=O)[O-])C(=O)[O-].[Ca+2].[Ca+2].[Ca+2]` [Calcium Citrate, calcium citrate]: in the series on ovariectomized rats [1], the ALP in serum is on record as 130 U/L, the BUN in serum was 17 mg/dL, the CRE in serum was 0.85 mg/dL and the GOT in serum was 75 U/L. The GPT in serum in the series on ovariectomized rats [1] is given as 75 U/L. Moreover, in the series on ovariectomized rats [2], the Calcium in serum stood at 12.4 mg/dL, the Phosphor in serum is listed as 8 mg/dL, the Potassium in serum amounted to 5.8 mmol/L and the Sodium in serum came out at 143 mmol/L. Besides, the “bone density (Micro-CT images)” value in the series with ovariectomized rats [3] (FIG. 2F) was “lower bone density”. In addition, the “trabecula distribution (Micro-CT images)” value in the series on ovariectomized rats [3] (FIG. 3F) is “less compact trabecula distribution”.
